The subject of test [1] is phenol red excretion in trachea. Kind of test: Expectorant experiment, phenol red excretion method. Conditions: Positive control, 0.15 g/kg intragastric, 5 days. Type of test: in vivo, mice. The protocol: 50 Mice were randomly divided into 5 groups according to body weight: Normal saline, negative control group, ammonium chloride positive control group and high, medium and low dose of test drug (either Compound A, above, or Compound E, below). 10 mice in each group, 5 males and 5 females.
Compound A was administered via atomization inhalation (0.15 mL/min) for 1 min, once daily for 5 days and the positive control drug was administered by intragastric administration for 5 days.
Half an hour after the last administration of Compound A, 5% phenol red solution was injected into the abdominal cavity. The mice were sacrificed after a further half an hour. The skin of the neck was removed and the trachea from the thyroid cartilage to the bifurcation was separated, soaked it in 5% sodium bicarbonate solution with constant shaking. The sodium bicarbonate solution was used to detect the phenol red content.
The absorbance at 558 nm was detected by spectrophotometry (721G Spectrophotometer, Shanghai Jingke, Shanghai, China). The optical density value was used to calculate the phenol red content In the trachea by reference to the phenol red standard curve. The results of each group and the negative control group were tested for significant t-test.

In test [2] the test system is xylene induced ear swelling. As to the kind of experiment: Mouse ear swelling model I (xylene). Type of test: in vivo, BALB/c mice. To be noted: xylene on right ear, topical treatment, 40 minutes; (right ear weight−left ear weight)/left ear weight.
Protocol: The mice were randomly divided into 7 groups as described in Table 1 below, with 5 mice in each group
The left ear of each mouse was used as autologous control. 20 μL of xylene (Shanghai Aladdin Bio-Chem Technology Co., Ltd., Shanghai, China) was applied to the right ear of each mouse, both inside and outside. The ear started to swell in about 4 minutes. Then, 0.08 g of each study treatments or vehicles were applied to the right ears in each group. The mice were put back into their cages.
Vehicle-1 in Table 1 below is the cream base without active ingredients. Vehicle-2 in Table 1 below is the gel base without active ingredients.
The mice were sacrificed by cervical dislocation after 40 minutes. The left and right ears were cut off. A skin pouch (Electron Microscopy Sciences, Hatfield, Pa., USA) with a diameter of 8 mm was used to take a piece of the ear from the same site of both ears.
Test [3] deals with diabetic skin wound. As to the kind of experiment: Diabetic wound model I. Conditions: histology. Type of test: in vivo, db/db mice (C57BL/KsJ-db/db). Here is the method: A similar experiment with essentially the same protocol to that described in Example 6 above was carried out on 8 to 12 week-old male db/db mice (C57BL/KsJ-db/db), with a body weight of 35-45 g/mouse (Changzhou Cvens Experimental Animal Co. Ltd.).
An EMS skin biopsy punch with a 18 mm diameter was used to make wounds.
Different drugs were administrated topically at 50 μL/wound, once daily from Day 0 to Day 12. The model group was given same amount of normal saline.
Photographs were taken for each wound every other day from Day 0. Photos were scanned into a computer, and wound areas calculated using ImageJ image analysis software (National Institute of Health, USA).
The unhealed wound area was expressed as a percentage of the original wound area: At/A0×100%, where A0 and At refer to the initial area at Day 0 and the wound area at the date of measurement (time t), respectively.
Histological specimens were analyzed and skin regeneration, fibroblast proliferation, collagen regeneration scores (Masson score) and inflammation scores were estimated as follows.
The HE and Masson stained slices were observed under an optical microscope and were scored (1, 2 or 3 points) according to the following criteria. […]

The subject of test [4] is diabetic skin wound. Kind of test: Diabetic wound model II. It is filed as in vivo, db/db mice (C57BL/KsJ-db/db). Here is the method:
A similar experiment with essentially the same protocol to that described in Example 7 above was carried out on 8 to 12 week-old male db/db mice (C57BL/KsJ-db/db) with a body weight of 35-45 g/mouse (Changzhou Cvens Experimental Animal Co. Ltd.).
Different concentrations of Compound A and Compound 1 (“A” and “1” respectively, as indicated in the Table 5 below) were prepared in substantially the same way as described in Examples 6 and 7 above.
Different drugs were administrated topically at 50 μL/wound, once daily from Day 0 to Day 12, as show in Table 5 below.
The model group was given same amount of normal saline. There were 8 mice in each group. 4 mice were in the control group. The skin pieces taken during wound creation were used as the samples at Day 7 for the control group.
Histological specimens were analyzed as described in Example 7 above, except that the collagen deposition score criterion for the Masson stained sample were as follows. A comparison was made with normal tissue. No clear blue staining was given 0 points; blue fiber appearing in a scattered pattern was scored as 1 points; if more blue fiber appeared, this was scored as 2 points, and a diffuse blue colour was given 3 points.

Non-standard residues stand in square brackets, D forms with d. No end group written: not given here. Hyp = O=C(O)[C@@H]1C[C@@H](O)CN1

As to `Cl.N` [NH4Cl, ammonium chloride], the “Phenol red concentration” value in test [1] was found to be 10.335 ± 0.337 µg/mL.

As to “Ala-Lys-Pro-Ser-Tyr-Hyp-Hyp-Thr-Tyr-Lys (AKPSY[Hyp][Hyp]TYK; not fully specified; printed as Ala-Lys-Pro-Ser-Tyr-Hyp-Hyp-Thr-Tyr-Lys) [Compound 1]”, the Swelling rate in test [2] came to 61.5%. Moreover, in test [3], the Fibroblast proliferation score entry is “could promote”. The Skin regeneration score entry in test [3] is “could promote the skin regeneration”. For the same compound, the “ratio of remaining wound area of initial wound (Mean)” value in test [4] (high dose (H), D1) is listed as 1.000; in test [4] (high dose (H), D2), 1.051; in test [4] (high dose (H), D4), 0.821; in test [4] (high dose (H), D6), 0.718; in test [4] (high dose (H), D8), 0.486; in test [4] (high dose (H), D10), 0.478. For the same compound, the “ratio of remaining wound area of initial wound (Mean)” value in test [4] (high dose (H), D12) turned out to be 0.368; in test [4] (low dose (L), D1), 1.000; in test [4] (low dose (L), D2), 0.860; in test [4] (low dose (L), D4), 0.753; in test [4] (low dose (L), D6), 0.593; in test [4] (low dose (L), D8), 0.467. For the same compound, the “ratio of remaining wound area of initial wound (Mean)” value in test [4] (low dose (L), D10) came out at 0.433; in test [4] (low dose (L), D12), 0.306; in test [4] (medium dose (M), D1) it was 1.000; in test [4] (medium dose (M), D2), 0.991; in test [4] (medium dose (M), D4) it was 0.895; in test [4] (medium dose (M), D6), 0.786. For the same compound, the “ratio of remaining wound area of initial wound (Mean)” value in test [4] (medium dose (M), D8) came out at 0.552; in test [4] (medium dose (M), D10), 0.490; in test [4] (medium dose (M), D12) it was 0.344. Further, the wound healing entry in test [4] (low dose, earlier stages after wound infliction) is given as “prompted wound healing in the earlier stages”.

Source of the values: US11680082B2, “Conjugates of montelukast and peptides” (ENLITISA (SHANGHAI) PHARMACEUTICAL CO., LTD, priority 2018, dated 2023).
